Data as given in patent US10294202B2, “Pyrrolidinones as herbicides” (FMC Corporation, priority 2013, dated 2019).
Like-named read-outs stand apart in the source and are kept apart here.

Experiments:
nutsedge, yellow = experiment: Test C pre-/postemergence herbicide test; type: in vivo, Cyperus esculentus
How it was run: (§1)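 Test compounds, formulated in a surfactant-containing non-phytotoxic solvent blend, are applied to seeded loam/sand soil (preemergence) and to young plants at the 1- to 4-leaf stage in peat-based medium (postemergence). Plants stay 13 to 15 days under greenhouse conditions, then are scored visually relative to controls, 0 = no effect, 100 = complete control.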

barnyardgrass [1] = experiment: Test A pre-/postemergence herbicide test; type: in vivo, Echinochloa crus-galli; conditions: for pest or weed control at 500 g/ha: 0 to 100 scale (0 no effect, 100 complete control)
How it was run: (§2)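 Planted in loam–sand blend; treated the same day preemergence by directed soil spray, while separately grown plants at one- to two-leaf stage got postemergence spray. Compared visually with untreated controls after approximately 10 days; 100 means complete control.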

soybean = experiment: Test C pre-/postemergence herbicide test; type: in vivo, Glycine max
How it was run: as §1

barnyardgrass [2] = experiment: Test C pre-/postemergence herbicide test; type: in vivo, Echinochloa crus-galli; conditions: for Barnyardgrass plant response rating: scale 0 to 100, 0 is no effect and 100 is complete control
How it was run: as §1

pigweed = experiment: Test A pre-/postemergence herbicide test; type: in vivo, Amaranthus retroflexus
How it was run: as §2

barnyardgrass [3] = experiment: Test B flooded paddy test; type: in vivo, Echinochloa crus-galli; conditions: Flood, scale of 0 to 100 where 0 is no effect and 100 is complete control
How it was run: (§3)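 First, plants reach the 2-leaf stage; next, pots are flooded to 3 cm and compound is delivered into the water; finally, after 13 to 15 greenhouse days at constant depth, injury is graded visually from 0 to 100 against controls.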

ryegrass, Italian = experiment: Test C pre-/postemergence herbicide test; type: in vivo, Lolium multiflorum
How it was run: as §1

morningglory = experiment: Test C pre-/postemergence herbicide test; type: in vivo, Ipomoea coccinea
How it was run: as §1

rice = experiment: Test B flooded paddy test; type: in vivo, Oryza sativa; conditions: Flood, scale of 0 to 100 where 0 is no effect and 100 is complete control
How it was run: as §3

ducksalad = experiment: Test B flooded paddy test; type: in vivo, Heteranthera limosa; conditions: Flood, scale of 0 to 100 where 0 is no effect and 100 is complete control
How it was run: as §3

oat, wild = experiment: Test C pre-/postemergence herbicide test; type: in vivo, Avena fatua; conditions: Postemergence
How it was run: as §1

waterhemp = experiment: Test C pre-/postemergence herbicide test; type: in vivo, Amaranthus rudis
How it was run: as §1

[4] = Postemergence, 31 g ai/ha, scale 0 (no effect) to 100 (complete control)
[5] = Postemergence, 62 g ai/ha, scale 0 to 100 (0 no effect, 100 complete control)
[6] = Postemergence, 125 g ai/ha, scale 0 to 100 (0 no effect, 100 complete control)
[7] = Postemergence, 250 g ai/ha, scale 0 to 100 (0 no effect, 100 complete control)
[8] = Preemergence, 31 g ai/ha, scale 0 to 100, 0 is no effect and 100 is complete control
[9] = Preemergence, 62 g ai/ha, scale 0 to 100
[10] = Preemergence, 125 g ai/ha, scale 0 to 100 (0 no effect, 100 complete control)
[11] = Preemergence, 125 g ai/ha, visual rating on 0 to 100 scale (0 no effect, 100 complete control)
[12] = 125 g ai/ha, scale 0 to 100 (0 no effect, 100 complete control)
[13] = 250 g ai/ha, scale 0 to 100 (0 no effect, 100 complete control)
[14] = Postemergence, 31 g ai/ha, scale 0 to 100 (0 no effect, 100 complete control)
[15] = Postemergence, 62 g ai/ha, scale 0 (no effect) to 100 (complete control)
[16] = Preemergence, 62 g ai/ha, scale 0 to 100 (0 no effect, 100 complete control)
[17] = 125 g ai/ha, visual rating, 0 to 100 scale, 0 no effect, 100 complete control, approximately 10 days, preemergence
[18] = Postemergence, 125 g ai/ha, 0 to 100 scale, 0 is no effect, 100 is complete control
[19] = preemergence, 500 g ai/ha, 0 to 100 scale, 0 is no effect and 100 is complete control

O=C1NCC(c2ccc(C(F)(F)F)cc2)C1C(=O)Nc1cccc(F)c1F (stereo not drawn) [Compound 80, N-(2,3-difluorophenyl)-2-oxo-4-[4-(trifluoromethyl)phenyl]-3-pyrrolidinecarboxamide]
Plant response rating, Nutsedge, Yellow (nutsedge, yellow; [4]): 0
Plant response rating, Nutsedge, Yellow (nutsedge, yellow; [5]): 0
Plant response rating, Nutsedge, Yellow (nutsedge, yellow; [6]): 0
Plant response rating, Nutsedge, Yellow (nutsedge, yellow; [7]): 0
Nutsedge, Yellow plant response rating (nutsedge, yellow; [8]): 0
Plant response rating, Nutsedge, Yellow (nutsedge, yellow; [9]): 0
Plant response rating, Nutsedge, Yellow (nutsedge, yellow; [10]): 0
Plant response rating (scale of 0 to 100), Nutsedge, Yellow (nutsedge, yellow; Preemergence, 250 g ai/ha): 10
pest or weed control at 125 g/ha (barnyardgrass [1]; Echinochloa crus-galli, post-emergence, 240 h, Postemergence, 125 g ai/ha, 0 to 100 scale, 0 no effect, 100 complete control, read-out: Plant response rating, Barnyardgrass): 80%
pest or weed control at 500 g/ha (barnyardgrass [1]; Echinochloa crus-galli, post-emergence, 240 h, Postemergence, 500 g ai/ha, read-out: Plant response rating, Barnyardgrass): 80%
pest or weed control at 500 g/ha (barnyardgrass [1]; Echinochloa crus-galli, pre-emergence, 240 h, preemergence, 500 g ai/ha, read-out: Plant response rating, Barnyardgrass): 80%
Barnyardgrass plant response rating (barnyardgrass [1]; [11]): 80
Plant response rating, Soybean (soybean; [4]): 0
Plant response rating, Soybean (soybean; [5]): 5
Plant response rating, Soybean (soybean; [6]): 5
Plant response rating, Soybean (soybean; [7]): 25
Soybean plant response rating (soybean; [8]): 0
Plant response rating, Soybean (soybean; [9]): 0
Plant response rating, Soybean (soybean; [10]): 0
Plant response rating (scale of 0 to 100), Soybean (soybean; Preemergence, 250 g ai/ha): 0
Plant response rating, Barnyardgrass (barnyardgrass [2]; [4]): 0
Plant response rating, Barnyardgrass (barnyardgrass [2]; [5]): 20
Plant response rating, Barnyardgrass (barnyardgrass [2]; [6]): 35
Plant response rating, Barnyardgrass (barnyardgrass [2]; [7]): 70
Barnyardgrass plant response rating (barnyardgrass [2]; Preemergence, 31 g ai/ha): 85
Plant response rating, Barnyardgrass (barnyardgrass [2]; [9]): 95
Plant response rating, Barnyardgrass (barnyardgrass [2]; [10]): 95
Plant response rating (scale of 0 to 100; 0 is no effect, 100 is complete control), Barnyardgrass (barnyardgrass [2]; Preemergence, 250 g ai/ha): 95
pest or weed control at 125 g/ha (pigweed; Amaranthus retroflexus, post-emergence, 240 h, Postemergence, 125 g ai/ha, 0 to 100 scale, 0 no effect, 100 complete control, read-out: Plant response rating, Pigweed): 60%
pest or weed control at 500 g/ha (pigweed; Amaranthus retroflexus, post-emergence, 240 h, Postemergence, 500 g ai/ha, 0 to 100 scale (0 no effect, 100 complete control), read-out: Plant response rating, Pigweed): 70%
pest or weed control at 500 g/ha (pigweed; Amaranthus retroflexus, pre-emergence, 240 h, preemergence, 500 g ai/ha, 0 to 100 scale, read-out: Plant response rating, Pigweed): 80%
Pigweed plant response rating (pigweed; [11]): 60
Plant response rating, Barnyardgrass (barnyardgrass [3]; 250 g ai/ha): 30
Plant response rating, Ryegrass, Italian (ryegrass, Italian; [4]): 0
Plant response rating, Ryegrass, Italian (ryegrass, Italian; [5]): 0
Plant response rating, Ryegrass, Italian (ryegrass, Italian; [6]): 0
Plant response rating, Ryegrass, Italian (ryegrass, Italian; [7]): 0
Ryegrass, Italian plant response rating (ryegrass, Italian; [8]): 0
Plant response rating, Ryegrass, Italian (ryegrass, Italian; [9]): 40
Plant response rating, Ryegrass, Italian (ryegrass, Italian; [10]): 40
Plant response rating (scale of 0 to 100), Ryegrass, Italian (ryegrass, Italian; Preemergence, 250 g ai/ha): 45
Plant response rating, Morningglory (morningglory; [4]): 0
Plant response rating, Morningglory (morningglory; [5]): 5
Plant response rating, Morningglory (morningglory; [6]): 5
Plant response rating, Morningglory (morningglory; [7]): 5
Morningglory plant response rating (morningglory; [8]): 0
Plant response rating, Morningglory (morningglory; [9]): 0
Plant response rating, Morningglory (morningglory; [10]): 20
Plant response rating (scale of 0 to 100), Morningglory (morningglory; Preemergence, 250 g ai/ha): 20
Plant response rating, Rice (rice; 250 g ai/ha): 0
Plant response rating, Ducksalad (ducksalad; 250 g ai/ha): 75
Plant response rating, Oat, Wild (oat, wild; 31 g ai/ha, scale 0 (no effect) to 100 (complete control)): 0
Plant response rating, Oat, Wild (oat, wild; 62 g ai/ha, scale 0 to 100 (0 no effect, 100 complete control)): 0
Plant response rating, Oat, Wild (oat, wild; [12]): 0
Plant response rating, Oat, Wild (oat, wild; [13]): 0
Plant response rating, Waterhemp (waterhemp; [4]): 30
Plant response rating, Waterhemp (waterhemp; [5]): 45
Plant response rating, Waterhemp (waterhemp; [6]): 45
Plant response rating, Waterhemp (waterhemp; [7]): 65
Waterhemp plant response rating (waterhemp; [8]): 15
Plant response rating, Waterhemp (waterhemp; [9]): 80
Plant response rating, Waterhemp (waterhemp; [10]): 90
Plant response rating (scale of 0 to 100), Waterhemp (waterhemp; Preemergence, 250 g ai/ha): 90

O=C1NCC(c2cccc(OC(F)F)c2)C1C(=O)Nc1cccc(F)c1F (stereo not drawn) [Compound 224]
Plant response rating, Nutsedge, Yellow (nutsedge, yellow; [14]): 0
Plant response rating, Nutsedge, Yellow (nutsedge, yellow; [15]): 0
Plant response rating, Nutsedge, Yellow (nutsedge, yellow; [6]): 0
Plant response rating, Nutsedge, Yellow (nutsedge, yellow; [7]): 0
Nutsedge, Yellow plant response rating (nutsedge, yellow; [8]): 0
Nutsedge, Yellow plant response rating (nutsedge, yellow; [16]): 10
Plant response rating, Nutsedge, Yellow (nutsedge, yellow; [10]): 0
Plant response rating (scale of 0 to 100), Nutsedge, Yellow (nutsedge, yellow; Preemergence, 250 g ai/ha): 0
Plant response rating, Barnyardgrass (barnyardgrass [1]; [17]): 90
Plant response rating, Barnyardgrass (barnyardgrass [1]; [18]): 80
Barnyardgrass plant response rating (0 to 100 scale, 0 is no effect, 100 is complete control) (barnyardgrass [1]; Postemergence, 500 g ai/ha): 90
Plant response rating, Barnyardgrass (barnyardgrass [1]; [19]): 90
Plant response rating, Soybean (soybean; [14]): 0
Plant response rating, Soybean (soybean; [15]): 10
Plant response rating, Soybean (soybean; [6]): 5
Plant response rating, Soybean (soybean; [7]): 5
Soybean plant response rating (soybean; [8]): 0
Soybean plant response rating (soybean; [16]): 100
Plant response rating, Soybean (soybean; [10]): 0
Plant response rating (scale of 0 to 100), Soybean (soybean; Preemergence, 250 g ai/ha): 5
Plant response rating, Barnyardgrass (barnyardgrass [2]; [14]): 0
Plant response rating, Barnyardgrass (barnyardgrass [2]; [15]): 30
Plant response rating, Barnyardgrass (barnyardgrass [2]; [6]): 50
Plant response rating, Barnyardgrass (barnyardgrass [2]; [7]): 75
Barnyardgrass plant response rating (barnyardgrass [2]; Preemergence, 31 g ai/ha): 75
Plant response rating, Barnyardgrass (barnyardgrass [2]; [9]): 85
Plant response rating, Barnyardgrass (barnyardgrass [2]; [10]): 90
Plant response rating (scale of 0 to 100; 0 is no effect, 100 is complete control), Barnyardgrass (barnyardgrass [2]; Preemergence, 250 g ai/ha): 95
Plant response rating, Pigweed (pigweed; [17]): 80
Plant response rating, Pigweed (pigweed; [18]): 60
Pigweed plant response rating (0 to 100 scale, 0 is no effect, 100 is complete control) (pigweed; Postemergence, 500 g ai/ha): 80
Plant response rating, Pigweed (pigweed; [19]): 80
Plant response rating, Barnyardgrass (barnyardgrass [3]; 500 g ai/ha): 70
Plant response rating, Ryegrass, Italian (ryegrass, Italian; [14]): 0
Plant response rating, Ryegrass, Italian (ryegrass, Italian; [15]): 0
Plant response rating, Ryegrass, Italian (ryegrass, Italian; [6]): 5
Plant response rating, Ryegrass, Italian (ryegrass, Italian; [7]): 5
Ryegrass, Italian plant response rating (ryegrass, Italian; [8]): 0
Ryegrass, Italian plant response rating (ryegrass, Italian; [16]): 0
Plant response rating, Ryegrass, Italian (ryegrass, Italian; [10]): 0
Plant response rating (scale of 0 to 100), Ryegrass, Italian (ryegrass, Italian; Preemergence, 250 g ai/ha): 15
Plant response rating, Morningglory (morningglory; [14]): 5
Plant response rating, Morningglory (morningglory; [15]): 5
Plant response rating, Morningglory (morningglory; [6]): 35
Plant response rating, Morningglory (morningglory; [7]): 35
Morningglory plant response rating (morningglory; [8]): 5
Morningglory plant response rating (morningglory; [16]): 25
Plant response rating, Morningglory (morningglory; [10]): 5
Plant response rating (scale of 0 to 100), Morningglory (morningglory; Preemergence, 250 g ai/ha): 30
Plant response rating, Rice (rice; 500 g ai/ha): 0
Plant response rating, Ducksalad (ducksalad; 500 g ai/ha): 100
Plant response rating, Oat, Wild (oat, wild; 31 g ai/ha, scale 0 to 100 (0 no effect, 100 complete control)): 0
Plant response rating, Oat, Wild (oat, wild; 62 g ai/ha, scale 0 (no effect) to 100 (complete control)): 0
Plant response rating, Oat, Wild (oat, wild; [12]): 5
Plant response rating, Oat, Wild (oat, wild; [13]): 15
Plant response rating, Waterhemp (waterhemp; [14]): 25
Plant response rating, Waterhemp (waterhemp; [15]): 35
Plant response rating, Waterhemp (waterhemp; [6]): 30
Plant response rating, Waterhemp (waterhemp; [7]): 30
Waterhemp plant response rating (waterhemp; [8]): 75
Waterhemp plant response rating (waterhemp; [16]): 5
Plant response rating, Waterhemp (waterhemp; [10]): 70
Plant response rating (scale of 0 to 100), Waterhemp (waterhemp; Preemergence, 250 g ai/ha): 80
